Laboratory results as given in patent publication US12180198B2, “Ribocil C antibiotics effective for Gram-negative pathogens” (THE BOARD OF TRUSTEES OF THE UNIVERSITY OF ILLINOIS, priority 2018, dated 2024).
Where a name gives a salt, the structure may show the parent alone.

Legend:
[1] = test system: E. cloacae, K. pneumoniae, and A. baumannii; test: MIC, micro-dilution broth method (text summary); assay type: cell-based; conditions: strains of E. cloacae
[2] = test system: E. coli harboring FabI A116V; test: MIC against resistant mutants; assay type: cell-based; conditions: Escherichia coli
Experimental: (§1) Antimicrobial susceptibility tests. Susceptibility testing was performed in biological triplicate, using the micro-dilution broth method as outlined by the Clinical and Laboratory Standards Institute. Bacteria were cultured with cation-adjusted Muller-Hinton broth (Sigma-Aldrich, Cat #90922) in round-bottom 96-well plates (Corning, Cat #3788). Human serum (pooled gender, 0.2 μm filtered) was purchased from BioIVT (Hicksville, NY).
(§2) Selection of resistant mutants. Resistant mutants were selected via the large inoculum method.

[3] = test system: strains harboring FabI G148S; test: MIC against resistant mutants; assay type: cell-based, E. coli; conditions: Escherichia coli, FABIG148S
Experimental: as §1, §2

Mouse MTD = test: Mouse MTD
Experimental: The protocol was approved by the IACUC at the University of Illinois at Urbana-Champaign (Protocol Number: 16144). In these studies, 10- to 12-week-old female C57BL/6 mice purchased from Charles River were used. The maximum tolerate dose (MTD) of a single compound was determined first. […] For multiple doses, the compound was given by daily IP for 5 consecutive days and mice were monitored for signs of toxicity for 1 month. MTD was the highest dosage with acceptable toxicity (e.g., <20% weight loss). Single dose MTDs were initially determined.

A. baumannii W41979 [4] = test: Bacterial sepsis survival model; assay type: in vivo; conditions: CD-1 mice, 50 mg/kg IV once-per-day, four doses
Experimental: (§3) FIG. 4. In vivo efficacy of Debio-1452-NH3. A. Kaplan-Meier survival curve of mouse efficacy model of A. baumannii sepsis. Seven-week-old CD-1 mice were infected with A. baumannii W41979 (2.6×10^8 CFU/mouse, 15 mice per group) via IV injection. Mice were treated once-a-day for 4 days with FabI inhibitor (IV, 50 mg/kg). Log-rank test, p<0.0001. B. Acute pneumonia infections initiated in CD-1 mice with A. baumannii W41979 (2.1×10^8 CFU/mouse, intranasal) were treated with vehicle (8 mice) or FabI inhibitor (10 mice per group) 8, 30, and 48 h post-infection (IV, 50 mg/kg), and the bacterial burden was evaluated 72 h post-infection. C. Kaplan-Meier survival curve of in vivo efficacy model of K. pneumonia sepsis. Seven-week-old CD-1 mice were infected with K. pneumoniae BAA-1705 (1.08×10^8 CFU/mouse, 15 mice per group) via IV injection. […] Acute pneumonia infections initiated in CD-1 mice with K. pneumoniae BAA-1705 (4.4×10^8 CFU/mouse, intranasal) were treated with vehicle or FabI inhibitor (8 mice per group) 6, 23, and 45 h post-infection (IV, 50 mg/kg), and the bacterial burden was evaluated 72 h post-infection. […] Acute pneumonia infections initiated in CD-1 mice with E. coli AR-0493 (1.73×10^8 CFU/mouse, intranasal) were treated with vehicle or FabI inhibitor (8 mice per group) 6 and 28 h post-infection (IV, 50 mg/kg), and the bacterial burden was evaluated 48 h post-infection. […]

A. baumannii W41979 [5] = test: Acute pneumonia bacterial burden model; assay type: in vivo; conditions: CD-1 mice, 50 mg/kg IV
Experimental: as §3, with “C.” for “C. Kaplan-Meier survival curve of in vivo efficacy model of K. pneumonia sepsis. Seven-week-old CD-1 mice were infected with K. pneumoniae BAA-1705 (1.08×10^8 CFU/mouse, 15 mice per group) via IV injection.”
(§4) Acute pneumonia bacterial burden model. […] At 48 h post-infection (E. coli) or 72 h post-infection (A. baumannii and K. pneumoniae), CFU were determined in the lungs through serial dilutions. […]

[6] = test system: carbepenem-resistant K. pneumoniae; test: Sepsis survival and pneumonia bacterial burden models; assay type: in vivo; conditions: CD-1 mice, K. pneumoniae BAA-1705, 50 mg/kg IV
Experimental: as §3, with “C.” for “C. Kaplan-Meier survival curve of in vivo efficacy model of K. pneumonia sepsis. Seven-week-old CD-1 mice were infected with K. pneumoniae BAA-1705 (1.08×10^8 CFU/mouse, 15 mice per group) via IV injection.”
as §4

[7] = test system: colistin-resistant E. coli; test: as above; assay type: in vivo; conditions: CD-1 mice, E. coli AR-0493, 50 mg/kg IV
Experimental: as §3, with “C.” for “C. Kaplan-Meier survival curve of in vivo efficacy model of K. pneumonia sepsis. Seven-week-old CD-1 mice were infected with K. pneumoniae BAA-1705 (1.08×10^8 CFU/mouse, 15 mice per group) via IV injection.”
as §4

[8] = test system: Gram-negative ESKAPE pathogens and E. coli; test: MIC, micro-dilution broth method (text summary); assay type: cell-based

| Structure (SMILES) | MIC [1] | MIC [2] | MIC [3] | dose well tolerated in mice (Mouse MTD; female, C57BL/6, mouse, in vivo, ip, 5 days) | single dose well tolerated (Mouse MTD; mice, IP injection, single dose, monitored 2 weeks) | daily dosing well tolerated (Mouse MTD; mice, IP, daily for 5 consecutive days) | survival (in words) (A. baumannii W41979 [4]) | bacterial burden (in words) (A. baumannii W41979 [5]) | efficacy in infected mice (in words) [6] | efficacy in infected mice (in words) [7] | MIC ([8]; Escherichia coli, Gram-negative ESKAPE pathogens and E. coli) | activity (in words) ([8]; Gram-negatives with intact outer membranes) |
| --- | --- | --- | --- | --- | --- | --- | --- | --- | --- | --- | --- | --- |
| Cc1c(CN(C)C(=O)/C=C/c2cnc3c(c2)CC(N)C(=O)N3)oc2ccccc12 (stereo not drawn) [Debio-1452-NH3, (E)-3-(6-amino-7-oxo-5,6,7,8-tetrahydro-1,8-naphthyridin-3-yl)-N-methyl-N-((3-methylbenzofuran-2-yl)methyl)acrylamide hydrochloride] | 4 to 8 µg/mL | 64 µg/mL | > 64 µg/mL | 50 mg/kg | 50 mg/kg | 50 mg/kg | significantly increased survival | reduced bacterial burden | efficacy | efficacy | – | – |
| Cc1c(CN(C)C(=O)/C=C/c2cnc3c(c2)CCC(=O)N3)oc2ccccc12 [Debio-1452, (E)-N-methyl-N-((3-methylbenzofuran-2-yl)methyl)-3-(7-oxo-5,6,7,8-tetrahydro-1,8-naphthyridin-3-yl)acrylamide, reference compound] | – | – | – | – | – | – | – | – | – | – | > 32 µg/mL | no activity |
